No end group written: not given here.
These molecules were tested against human IgA (assay: Surface plasmon resonance analysis (BiaCore T100) of peptide binding to human IgA). Settings: binding affinity to human IgA.
Protocol: In order to verify binding specificity of such peptides, binding strength was evaluated via surface plasmon resonance analysis using a BiaCore T100 (GE Healthcare).

| Molecule | Kd [nM] |
| --- | --- |
| HMVCLSYRGRPVCF [Opt2 14AA] | 603 |
| HMVCLSYRGRPVCFS [Opt2 15AA] | 491 |
| HQVCLSYRGQPTCFST [Opt2 M2Q L16T R10 Q V12T] | 2820 |
| HQVCLSYRGQPVCFSL [Opt2 M2Q R10Q] | 65 |
| HQVCLSYRGQPVCFST [Opt2 M2Q L16T R10Q] | 699 |
| HQVCLSYRGRPTCFSL [Opt2 M2Q V12T] | 149 |
| HQVCLSYRGRPTCFST [Opt2 M2Q L16T V12T] | 952 |
| HQVCLSYRGRPVCFSL [Opt2 M2Q] | 23 |
| HQVCLSYRGRPVCFST [Opt2 M2Q L16T] | 72 |
| HQVCLSYRGRPVCYSL [Opt2 M2Q F14Y] | 624 |

Each molecule was assayed against human IgA (human) (assay: SPR (Biacore T100)). Settings: not given.

| Molecule | Kd [nM] |
| --- | --- |
| HQVCLSYRGQPVCFSL (not fully specified (bridges); cysteine pairing not given here) [Opt2 M2Q R10Q] | 65 |
| HQVCLSYRGRPVCYSL (not fully specified (bridges); cysteine pairing not given here) [Opt2 M2Q F14Y] | 624 |
| HQVCLSYRGRPTCFST (not fully specified (bridges); cysteine pairing not given here) [Opt2 M2Q L16T V12T] | 952 |
| HQVCLSYRGRPTCFSL (not fully specified (bridges); cysteine pairing not given here) [Opt2 M2Q V12T] | 149 |
| HQVCLSYRGRPVCFSL (not fully specified (bridges); cysteine pairing not given here) [Opt2 M2Q] | 23 |
| HQVCLSYRGQPVCFST (not fully specified (bridges); cysteine pairing not given here) [Opt2 M2Q L16T R10Q] | 699 |
| HMVCLSYRGRPVCF (not fully specified (bridges); cysteine pairing not given here) [Opt2 14AA] | 603 |
| HQVCLSYRGRPVCFST (not fully specified (bridges); cysteine pairing not given here) [Opt2 M2Q L16T] | 72 |
| HQVCLSYRGQPTCFST (not fully specified (bridges); cysteine pairing not given here) [Opt2 M2Q L16T R10 Q V12T] | 2820 |
| HMVCLSYRGRPVCFS (not fully specified (bridges); cysteine pairing not given here) [Opt2 15AA] | 491 |

— patent US20150044701A1, “IgA-BINDING PEPTIDE AND IgA PURIFICATION USING THE SAME” (KAGOSHIMA UNIVERSITY, priority 2011, published 2015)
